Test results reported in patent publication US20260183274A1, “PDK1 REGULATORY COMPOUND AND COMPOSITION CONTAINING THE SAME” (PROVIBIO CO., LTD., priority 2024, published 2026).

Target: T1, full-length PDK1 (PDK1-FL) (Homo sapiens, UniProt O15530)
T1 construct: the full-length (PDK1-FL) protein of human-derived PDK1; inferred from Ni-NTA purification; made in house; host or cells: Sf9 insect cells, baculovirus expression system
Assay: Microscale Thermophoresis (MST) binding affinity, full-length PDK1
Description: Microscale Thermophoresis (MST) analysis was performed to quantitatively measure the binding affinity between PDK1 protein and substrate peptides (PDKTide) or the company-developed low-molecular-weight compound (GO88).
The target proteins were the full-length (PDK1-FL) protein of human-derived PDK1 and the Protein Kinase Domain (PKD) fragment, which were expressed using a baculovirus expression system in insect cell lines (Sf9).
The purity of the purified proteins was confirmed by SDS-PAGE and Coomassie Brilliant Blue staining.
The purified protein was labeled with a fluorescent label using the Monolith NT™ RED-NHS Protein Fluorescent Labeling Kit (NanoTemper).
Specifically, 20 μM of the protein was dissolved in PBS (pH 7.4) buffer, mixed with the fluorescent reagent, and reacted at room temperature under dark conditions for 30 minutes. The mixture was then buffered with MST analysis buffer (50 mM HEPES, 150 mM NaCl, 1 mM DTT, 0.05% Tween-20, pH 7.5). […]
The reaction samples were injected into an MST-specific capillary (NanoTemper) and analyzed using a Monolith NT.115 device (NanoTemper) under laser intensity conditions. […]
The measured data were analyzed using MO.Affinity Analysis software (NanoTemper), and the dissociation constant (Kd) was calculated from the binding curve.

T1 sequence (O15530 whole entry): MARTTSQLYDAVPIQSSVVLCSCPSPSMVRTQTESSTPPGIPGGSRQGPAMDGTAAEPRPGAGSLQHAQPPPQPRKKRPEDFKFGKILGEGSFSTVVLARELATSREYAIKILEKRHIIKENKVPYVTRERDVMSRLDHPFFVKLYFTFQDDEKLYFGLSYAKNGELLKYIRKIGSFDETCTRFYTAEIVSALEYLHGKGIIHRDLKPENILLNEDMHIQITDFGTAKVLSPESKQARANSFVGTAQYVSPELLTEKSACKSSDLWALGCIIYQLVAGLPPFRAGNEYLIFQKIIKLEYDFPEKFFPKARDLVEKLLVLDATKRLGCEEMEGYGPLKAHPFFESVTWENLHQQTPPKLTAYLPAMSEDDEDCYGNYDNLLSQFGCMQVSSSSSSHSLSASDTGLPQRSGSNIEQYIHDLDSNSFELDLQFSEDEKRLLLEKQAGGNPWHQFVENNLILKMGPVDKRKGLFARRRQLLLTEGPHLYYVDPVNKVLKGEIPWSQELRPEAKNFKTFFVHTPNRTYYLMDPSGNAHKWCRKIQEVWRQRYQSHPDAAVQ

- Kd (FIG. 48, read-out: Dissociation constant (Kd), full-length PDK1): ~58.4 nM
SMILES: Nc1ncccc1C(=O)NCCCCCCCCCCCCN1CCNCC1 [Compound 14, 2-Amino-N-(12-(piperazin-1-yl)dodecyl)nicotinamide]
- Binding affinity of full-length PDK1 compared to the PKD fragment (ratio of Kd values): approximately six times stronger binding affinity
